Assay results reported in PubChem BioAssay (NCI).
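A five-concentration, 48-hour dose response in 96-well plates underlies each endpoint, interpolated linearly between surrounding concentrations. Abbreviation: GI50, concentration required for 50% inhibition of growth. TGI marks complete inhibition of growth.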

What was measured:
Assay in all cases: inhibition of tumour cell growth, NCI panel, 48 h
[1] = tested on: 786-0 renal
[2] = tested on: A498 renal
[3] = tested on: A549 NSCLC
[4] = tested on: ACHN renal
[5] = tested on: BT-549 breast
[6] = tested on: CAKI-1 renal
[7] = tested on: CCRF-CEM leukemia
[8] = tested on: COLO 205 colon
[9] = tested on: DU-145 prostate
[10] = tested on: HCC-2998 colon
[11] = tested on: HCT-116 colon
[12] = tested on: HCT-15 colon
[13] = tested on: HL-60(TB) leukemia
[14] = tested on: HOP-62 NSCLC
[15] = tested on: HOP-92 NSCLC
[16] = tested on: HS 578T breast
[17] = tested on: HT29 colon
[18] = tested on: IGROV1 ovarian
[19] = tested on: K-562 leukemia
[20] = tested on: KM12 colon
[21] = tested on: LOX IMVI melanoma
[22] = tested on: M14 melanoma
[23] = tested on: MALME-3M melanoma
[24] = tested on: MCF7 breast
[25] = tested on: MDA-MB-231 breast
[26] = tested on: MDA-MB-435
[27] = tested on: MOLT-4 leukemia
[28] = tested on: NCI-H226 lung
[29] = tested on: NCI-H23 lung
[30] = tested on: NCI-H460 lung
[31] = tested on: NCI-H522 lung
[32] = tested on: NCI/ADR-RES ovarian
[33] = tested on: OVCAR-3 ovarian
[34] = tested on: OVCAR-4 ovarian
[35] = tested on: OVCAR-5 ovarian
[36] = tested on: OVCAR-8 ovarian
[37] = tested on: PC-3 prostate
[38] = tested on: RPMI-8226 leukemia
[39] = tested on: RXF 393 renal
[40] = tested on: SF-268 CNS
[41] = tested on: SF-295 CNS
[42] = tested on: SF-539 CNS
[43] = tested on: SK-MEL-2 melanoma
[44] = tested on: SK-MEL-28 melanoma
[45] = tested on: SK-MEL-5 melanoma
[46] = tested on: SK-OV-3 ovarian
[47] = tested on: SN12C renal
[48] = tested on: SNB-19 CNS
[49] = tested on: SNB-75 CNS
[50] = tested on: SR leukemia
[51] = tested on: SW-620 colon
[52] = tested on: T-47D breast
[53] = tested on: TK-10 renal
[54] = tested on: U251 CNS
[55] = tested on: UACC-257 melanoma
[56] = tested on: UACC-62 melanoma
[57] = tested on: UO-31 renal
[58] = tested on: EKVX NSCLC

Question: Which results are given for C[C@@H](Oc1cc(-c2cnn(C3CC4(CNC4)C3)c2)cnc1N)c1c(Cl)ccc(F)c1Cl?
Answer: GI50 [1]: 5.6 µM; TGI [1]: 19.1 µM; GI50 [2]: 1.1 µM; TGI [2]: 4.81 µM; GI50 [3]: 3.09 µM; TGI [3]: 12.6 µM; GI50 [4]: 4.89 µM; TGI [4]: 18.3 µM; GI50 [5]: 6.49 µM; TGI [5]: 19.4 µM; GI50 [6]: 7.58 µM; TGI [6]: 21.4 µM; GI50 [7]: 0.681 µM; TGI [7]: 6.97 µM; GI50 [8]: 1.38 µM; TGI [8]: 3.3 µM; GI50 [9]: 5.45 µM; TGI [9]: 18.1 µM; GI50 [10]: 5.42 µM; TGI [10]: 19.7 µM; GI50 [11]: 2.09 µM; TGI [11]: 8.87 µM; GI50 [12]: 4.04 µM; TGI [12]: 15.1 µM; GI50 [13]: 1.59 µM; TGI [13]: 6.76 µM; GI50 [14]: 2.3 µM; TGI [14]: 13.4 µM; GI50 [15]: 0.848 µM; TGI [15]: 5.12 µM; GI50 [16]: 3.87 µM; TGI [16]: 27.1 µM; GI50 [17]: 1.7 µM; TGI [17]: 5.98 µM; GI50 [18]: 6.64 µM; TGI [18]: 21.5 µM; GI50 [19]: 0.349 µM; TGI [19]: 5.43 µM; GI50 [20]: 0.111 µM; TGI [20]: 7.42 µM; GI50 [21]: 1.96 µM; TGI [21]: 6.79 µM; GI50 [22]: 1.57 µM; TGI [22]: 3.37 µM; GI50 [23]: 1.53 µM; TGI [23]: 3.89 µM; GI50 [24]: 0.532 µM; TGI [24]: 5 µM; GI50 [25]: 2.23 µM; TGI [25]: 14.4 µM; GI50 [26]: 1.16 µM; TGI [26]: 14.2 µM; GI50 [27]: 1.03 µM; TGI [27]: 7.27 µM; GI50 [28]: 6.81 µM; TGI [28]: 24.3 µM; GI50 [29]: 1.97 µM; TGI [29]: 16 µM; GI50 [30]: 1.98 µM; TGI [30]: 13.7 µM; GI50 [31]: 10.2 µM; TGI [31]: 25.4 µM; GI50 [32]: 14.9 µM; TGI [32]: 31 µM; GI50 [33]: 9.94 µM; TGI [33]: 22.1 µM; GI50 [34]: 9.15 µM; TGI [34]: 22.7 µM; GI50 [35]: 1.82 µM; TGI [35]: 14.2 µM; GI50 [36]: 10.4 µM; TGI [36]: 24.3 µM; GI50 [37]: 2.64 µM; TGI [37]: 15.6 µM; GI50 [38]: 3.22 µM; TGI [38]: 13 µM; GI50 [39]: 3.39 µM; TGI [39]: 12.7 µM; GI50 [40]: 4.19 µM; TGI [40]: 18.2 µM; GI50 [41]: 1.41 µM; TGI [41]: 13.6 µM; GI50 [42]: 2.51 µM; TGI [42]: 7.89 µM; GI50 [43]: 3.58 µM; TGI [43]: 15.1 µM; GI50 [44]: 1.74 µM; TGI [44]: 4 µM; GI50 [45]: 3.92 µM; TGI [45]: 12.2 µM; GI50 [46]: 7.98 µM; TGI [46]: 21.1 µM; GI50 [47]: 2.59 µM; TGI [47]: 13.8 µM; GI50 [48]: 9.7 µM; TGI [48]: 24.3 µM; GI50 [49]: 2.44 µM; TGI [49]: 9.29 µM; GI50 [50]: 0.0769 µM; TGI [50]: 2.05 µM; GI50 [51]: 1.31 µM; TGI [51]: 11.9 µM; GI50 [52]: 3.89 µM; TGI [52]: 16.7 µM; GI50 [53]: 10.3 µM; TGI [53]: 22.5 µM; GI50 [54]: 5.01 µM; TGI [54]: 19.1 µM; GI50 [55]: 1.79 µM; TGI [55]: 4.33 µM; GI50 [56]: 3.64 µM; TGI [56]: 13.8 µM; GI50 [57]: 4.96 µM; TGI [57]: 18.3 µM

Question: What does the source list for CCOC(=O)C1=C(C)NC(C)=C(C(=O)OCC)C1c1cc(Br)c(O)c(OC)c1?
Answer: GI50 [1]: 4.01 µM; TGI [1]: 18 µM; GI50 [2]: 2.19 µM; TGI [2]: 7.13 µM; GI50 [3]: 4.11 µM; TGI [3]: 18.8 µM; GI50 [4]: 5.56 µM; TGI [4]: 22 µM; GI50 [5]: 2.8 µM; TGI [5]: 10.6 µM; GI50 [6]: 4.79 µM; TGI [6]: 30.8 µM; GI50 [7]: 3.37 µM; TGI [7]: 15.7 µM; GI50 [8]: 10.3 µM; TGI [8]: 22.9 µM; GI50 [9]: 3.88 µM; TGI [9]: 13.1 µM; GI50 [58]: 7.65 µM; TGI [58]: 34.4 µM; GI50 [10]: 3.12 µM; TGI [10]: 10.8 µM; GI50 [11]: 3.97 µM; TGI [11]: 13.5 µM; GI50 [12]: 3.65 µM; TGI [12]: 14.2 µM; GI50 [13]: 2.35 µM; TGI [13]: 6.35 µM; GI50 [14]: 4.37 µM; TGI [14]: 14.7 µM; GI50 [15]: 1.82 µM; TGI [15]: 12.3 µM; GI50 [16]: 2.54 µM; TGI [16]: 9.47 µM; GI50 [17]: 4.72 µM; TGI [17]: 18.2 µM; GI50 [18]: 7.39 µM; TGI [18]: 37.2 µM; GI50 [20]: 3.74 µM; TGI [20]: 14 µM; GI50 [21]: 5.23 µM; TGI [21]: 18.6 µM; GI50 [22]: 3.05 µM; TGI [22]: 10.1 µM; GI50 [23]: 10.6 µM; TGI [23]: 32.7 µM; GI50 [24]: 4.41 µM; TGI [24]: 23.9 µM; GI50 [25]: 6.15 µM; TGI [25]: 20.4 µM; GI50 [26]: 1.85 µM; TGI [26]: 6.2 µM; GI50 [27]: 3.61 µM; TGI [27]: 52.4 µM; GI50 [28]: 2.77 µM; TGI [28]: 12.4 µM; GI50 [29]: 4.81 µM; TGI [29]: 22.4 µM; GI50 [30]: 3.98 µM; TGI [30]: 14.4 µM; GI50 [31]: 4.22 µM; TGI [31]: 20.1 µM; GI50 [32]: 2.71 µM; TGI [32]: 9.4 µM; GI50 [33]: 2.34 µM; TGI [33]: 5.15 µM; GI50 [34]: 5.97 µM; TGI [34]: 37 µM; GI50 [35]: 4.32 µM; TGI [35]: 15.9 µM; GI50 [36]: 4.47 µM; TGI [36]: 38.9 µM; GI50 [37]: 3.62 µM; TGI [37]: 27.2 µM; GI50 [38]: 4.52 µM; TGI [38]: 41.4 µM; GI50 [39]: 1.98 µM; TGI [39]: 6.05 µM; GI50 [40]: 5.36 µM; TGI [40]: 22.4 µM; GI50 [41]: 2.89 µM; TGI [41]: 10.5 µM; GI50 [42]: 2.64 µM; TGI [42]: 7.07 µM; GI50 [43]: 5.29 µM; TGI [43]: 20.1 µM; GI50 [44]: 4.32 µM; TGI [44]: 16.7 µM; GI50 [45]: 3.61 µM; TGI [45]: 14.6 µM; GI50 [46]: 2.92 µM; TGI [46]: 7.38 µM; GI50 [47]: 6.07 µM; TGI [47]: 22.5 µM; GI50 [48]: 4.25 µM; TGI [48]: 16.8 µM; GI50 [49]: 1.85 µM; TGI [49]: 7.14 µM; GI50 [50]: 2.01 µM; TGI [50]: 21.2 µM; GI50 [51]: 4.12 µM; TGI [51]: 16.3 µM; GI50 [52]: 8.53 µM; TGI [52]: 46.6 µM; GI50 [53]: 9.54 µM; TGI [53]: 39.2 µM; GI50 [54]: 4.01 µM; TGI [54]: 15.6 µM; GI50 [55]: 12.6 µM; TGI [55]: 31.4 µM; GI50 [56]: 4.71 µM; TGI [56]: 17 µM; GI50 [57]: 4.55 µM; TGI [57]: 25.2 µM
